From patent US7851490B2, “Benzimidazole derivatives and their use for modulating the GABAA receptor complex” (Neurosearch A/S, priority 2005, dated 2010) come the findings set out here.

The target of the assay is benzodiazepine binding site on GABAA receptors. Nature of the assay: In vitro inhibition of 3H-flunitrazepam (3H-FNM) binding. Further details: species or system rat. To be noted: inhibition of specific binding of 3H-FNM (1 nM), cerebral cortex membranes from male Wistar rats, 40 min at 2° C. The procedure: In Vitro Inhibition of ^3H-flunitrazepam (^3H-FNM) Binding
The GABA recognition site and the benzodiazepine modulatory unit can selectively be labelled with ^3H-flunitrazepam.
Preparations are performed at 0-4° C. unless otherwise indicated. Cerebral cortex from male Wistar rats (150-200 g) is homogenised for 5-10 sec in 20 ml Tris-HCl (30 mM, pH 7.4) using an Ultra-Turrax homogeniser. The suspension is centrifuged at 27,000×g for 15 min and the pellet is washed three times with buffer (centrifuged at 27,000×g for 10 min). The washed pellet is homogenized in 20 ml of buffer and incubated on a water bath (37° C.) for 30 min to remove endogenous GABA and then centrifuged for 10 min at 27,000×g. The pellet is then homogenized in buffer and centrifuged for 10 min at 27,000×g. The final pellet is resuspended in 30 ml buffer and the preparation is frozen and stored at −20° C.
The membrane preparation is thawed and centrifuged at 2° C. for 10 min at 27,000×g. The pellet is washed twice with 20 ml 50 mM Tris-citrate, pH 7.1 using an Ultra-Turrax homogeniser and centrifuged for 10 min at 27,000×g. The final pellet is resuspended in 50 mM Tris-citrate, pH 7.1 (500 ml buffer per g of original tissue), and then used for binding assays. Aliquots of 0.5 ml tissue are added to 25 μl of test solution and 25 μl of ^3H-FNM (1 nM, final concentration), mixed and incubated for 40 min at 2° C. Non-specific binding is determined using Clonazepam (1 μM, final concentration). After incubation the samples are added 5 ml of ice-cold buffer and poured directly onto Whatman GF/C glass fibre filters under suction and immediately washed with 5 ml ice-cold buffer. The amount of radioactivity on the filters is determined by conventional liquid scintillation counting. Specific binding is total binding minus non-specific binding.
25-75% inhibition of specific binding must be obtained, before calculation of an IC50.
The test value will be given as IC50 (the concentration (μM) of the test substance which inhibits the specific binding of ^3H-FNM by 50%). IC50=(applied test substance concentration, […]
What is called IC50 is the concentration needed to halve the response being measured. Low readings indicate greater potency in that assay, high ones weaker potency in that assay. For the compound `CC(=O)NCc1ccc2c(c1)ncn2-c1cccc(-c2nccs2)c1` [N-[1-(3-Thiazol-2-yl-phenyl)-1H-benzoimidazol-5-ylmethyl]-acetamide], the IC50 was determined as 0.024 µM. That is a double-digit nanomolar value. The result for `O=CNCc1ccc2c(c1)ncn2-c1cccc(-c2nccs2)c1` [N-{1-[3-(Thiazol-2-yl)-phenyl]-1H-benzoimidazol-5-ylmethyl}-formamide] reads 0.0048 µM; that for `NCc1ccc2c(c1)ncn2-c1cccc(-c2nccs2)c1` [C-[1-(3-Thiazol-2-yl-phenyl)-1H-benzoimidazol-5-yl]-methylamine], 0.011 µM.
